Reference: the NIST ThermoML archive (doi:10.1021/je9008574)
Values joined by “and” are separate entries in the source; they are usually repeats but may differ in a detail not shown here. Equal values may be shown once.

Conditions: Crystal

[Cl-].[Cl-].[Ga+2] [gallium(II) chloride]
Conditions | vapor or sublimation pressure
372 K | 4.571e-05 kPa
374 K | 3.09e-05 kPa
375 K | 6.166e-05 kPa and 4.571e-05 kPa and 3.388e-05 kPa
378 K | 4.571e-05 kPa
378.5 K | 6.166e-05 kPa
379 K | 9.12e-05 kPa
381 K | 7.762e-05 kPa
381.5 K | 6.761e-05 kPa
382.5 K | 9.12e-05 kPa
383.5 K | 0.0001202 kPa
384 K | 0.0001202 kPa and 0.000123 kPa
385 K | 0.0001072 kPa
386 K | 0.0001514 kPa and 0.0001778 kPa
386.5 K | 0.000123 kPa and 0.0001023 kPa
387 K | 0.0001862 kPa
387.5 K | 0.000123 kPa
388.5 K | 0.0001778 kPa
389 K | 0.0002089 kPa
390 K | 0.0002399 kPa
390.5 K | 0.0001549 kPa
391 K | 0.0001698 kPa and 0.0001862 kPa
391.5 K | 0.0002399 kPa and 0.0002754 kPa
392 K | 0.000302 kPa
393 K | 0.0001862 kPa
393.5 K | 0.000302 kPa
394 K | 0.0002455 kPa and 0.0003311 kPa and 0.0002138 kPa
395 K | 0.0002754 kPa
396 K | 0.0002951 kPa
396.5 K | 0.000309 kPa
397.5 K | 0.000389 kPa and 0.0005248 kPa
398 K | 0.0002951 kPa and 0.0004169 kPa and 0.0004467 kPa
398.5 K | 0.0004786 kPa
399 K | 0.0003388 kPa and 0.0004786 kPa
399.5 K | 0.0003802 kPa and 0.0003981 kPa and 0.000302 kPa
401 K | 0.0005129 kPa
402 K | 0.0007244 kPa and 0.0007413 kPa
402.5 K | 0.0006607 kPa and 0.000389 kPa
403 K | 0.0006607 kPa and 0.0004786 kPa
403.5 K | 0.0005495 kPa
404 K | 0.0007762 kPa
405 K | 0.0006761 kPa and 0.0005888 kPa
405.5 K | 0.0007762 kPa
406 K | 0.000955 kPa and 0.0006761 kPa
406.5 K | 0.0008913 kPa
407.5 K | 0.000955 kPa and 0.0007762 kPa
408 K | 0.0007079 kPa
409 K | 0.0007762 kPa and 0.001023 kPa and 0.0007079 kPa
410 K | 0.001202 kPa
410.5 K | 0.000871 kPa and 0.001259 kPa and 0.001072 kPa
411 K | 0.001023 kPa
411.5 K | 0.001318 kPa and 0.001549 kPa
413 K | 0.0009772 kPa and 0.001445 kPa
413.5 K | 0.001514 kPa and 0.001445 kPa
414 K | 0.001202 kPa and 0.001259 kPa and 0.001072 kPa
414.5 K | 0.001288 kPa
415 K | 0.002138 kPa
415.5 K | 0.001259 kPa and 0.001905 kPa and 0.001862 kPa
416 K | 0.001413 kPa and 0.001778 kPa
416.5 K | 0.001905 kPa and 0.001549 kPa and 0.001288 kPa
417 K | 0.001585 kPa and 0.001549 kPa
417.5 K | 0.002089 kPa and 0.001698 kPa
418 K | 0.002138 kPa
418.5 K | 0.002399 kPa
419 K | 0.002399 kPa and 0.002138 kPa
420 K | 0.00195 kPa and 0.00263 kPa
421 K | 0.003388 kPa and 0.002138 kPa
421.5 K | 0.002138 kPa and 0.00302 kPa and 0.002951 kPa
422 K | 0.002138 kPa and 0.002344 kPa
422.5 K | 0.003236 kPa and 0.00302 kPa
423.5 K | 0.002291 kPa
424 K | 0.003802 kPa
424.5 K | 0.002512 kPa and 0.002818 kPa
425.5 K | 0.004266 kPa
426 K | 0.003981 kPa [middle of 5 runs]
427 K | 0.002754 kPa
427.5 K | 0.004571 kPa and 0.003467 kPa
428 K | 0.003236 kPa
428.5 K | 0.003388 kPa and 0.004677 kPa
429 K | 0.005248 kPa and 0.005129 kPa
430 K | 0.004365 kPa and 0.005248 kPa and 0.003311 kPa
430.5 K | 0.006026 kPa
431 K | 0.003715 kPa
432 K | 0.006457 kPa and 0.006761 kPa
432.5 K | 0.004365 kPa
433 K | 0.007079 kPa
434 K | 0.006026 kPa and 0.005495 kPa
435.5 K | 0.007943 kPa
436 K | 0.005623 kPa and 0.008318 kPa and 0.005495 kPa
437 K | 0.008913 kPa
438 K | 0.007586 kPa
439 K | 0.01 kPa
440 K | 0.01096 kPa and 0.01072 kPa
441 K | 0.00871 kPa and 0.007762 kPa
